Measurements as given in US20240182503A1, “MACROCYCLE COMPLEMENT FACTOR B INHIBITORS” (priority 2021, published 2024).

The molecules below were run against CVF-Bb complex (Homo sapiens (Human), UniProt P00751) (assay: biochemical). Conditions: not given.
Format: biochemical
Protocol: CVF-Bb complex, prepared from purified cobra venom factor, (3 nM) is incubated with a compound of the disclosure at various concentrations for 10 minutes at room temperature in PBS (pH 7.4) containing 10 mM MgCl2 and 0.05% (w/v) CHAPS. Human Complement C3 substrate is added to a final concentration of 1 μM. After 1 hour incubation at room temperature, the enzyme reaction is stopped by addition of a cocktail of concentrated pan-protease inhibitors. The product of the reaction, C3a, is quantified by means of an enzyme-linked-immunosorbent assay and/or denaturing gel electrophoresis (SDS-PAGE). IC50 values are calculated from percentage of inhibition of CVF-Bb activity as a function of test compound concentration.
COc1cc(C)c2[nH]ccc2c1CN1CC[C@H]2CC1c1ccc(C(=O)O)cc1CCCCCCCO2 [Ex. 39, (1^2S,1^4RS)-1^1-((5-methoxy-7-methyl-1H-indol-4-yl)methyl)-10-oxa-1(2,4)-piperidina-2(1,2)-benzenacyclodecaphane-2^4-carboxylic acid] gave an IC50 of 251 nM.
For COc1cc(C)c2[nH]ccc2c1CN1CC[C@H]2C[C@H]1c1ccc(C(=O)NS(C)(=O)=O)cc1OCCCCCCO2 [Ex. 33, (1^2S,1^4S)-1^1-((5-methoxy-7-methyl-1H-indol-4-yl)methyl)-N-(methylsulfonyl)-3,10-dioxa-1(2,4)-piperidina-2(1,2)-benzenacyclodecaphane-2^4-carboxamide], the IC50 was 96 nM.
For COc1cc(C)c2[nH]ccc2c1CN1CC[C@H](OCCNC(C)=O)C[C@H]1c1ccc(C(=O)O)cc1 [Compar. Ex. 1, 4-((2S,4S)-4-(2-acetamidoethoxy)-1-((5-methoxy-7-methyl-1H-indol-4-yl)methyl)piperidin-2-yl)benzoic acid, reference compound], the IC50 was 135 nM.
In the case of COc1cc(C)c2[nH]ccc2c1CN1CC[C@H]2C[C@H]1c1ccc(C(=O)O)cc1/C=C/CCCCCO2 [Ex. 36, (1^2R,1^4R,E)-1^1-((5-methoxy-7-methyl-1H-indol-4-yl)methyl)-10-oxa-1(2,4)-piperidina-2(1,2)-benzenacyclodecaphan-3-ene-2^4-carboxylic acid], the IC50 is reported as 241 nM.
In the case of Cc1cc2c(c3cc[nH]c13)CN1CC[C@@H](C[C@H]1c1ccc(C(=O)O)cc1)OCCCCCCCCO2 [Ex. 35, 4-((3^2R,3^4R)-1^7-methyl-11H-4,13-dioxa-1(4,5)-indola-3(1,4)-piperidinacyclotridecaphane-3^2-yl)benzoic acid], the IC50 is reported as over 10000 nM.
COc1cc(C)c2[nH]ccc2c1CN1CC[C@H]2C[C@H]1c1ccc(C(=O)NS(C)(=O)=O)cc1OCCCCCO2 [Ex. 40, (1^2R,1^4R)-1^1-((5-methoxy-7-methyl-1H-indol-4-yl)methyl)-N-(methylsulfonyl)-3,9-dioxa-1(2,4)-piperidina-2(1,2)-benzenacyclononaphane-2^4-carboxamide] showed an IC50 of 309 nM.
In the case of COc1cc(C)c2[nH]ccc2c1CN1CC[C@H]2C[C@H]1c1ccc(C(=O)O)cc1/C=C/CCCCCCO2 [Ex. 38, (1^2R,1^4R,E)-11-((5-methoxy-7-methyl-1H-indol-4-yl)methyl)-1^1-oxa-1(2,4)-piperidina-2(1,2)-benzenacycloundecaphan-3-ene-2^4-carboxylic acid], the IC50 is reported as 160 nM.
Work on CCO[C@H]1CCN2Cc3c(cc(C)c4[nH]ccc34)OCCCCCCCCCOc3cc(C(=O)O)ccc3[C@@H]2C1 [Ex. 31, (20bS,22S)-22-ethoxy-4-methyl-3,7,8,9,10,11,12,13,14,15,20b,21,22,23,24,26-hexadecahydrobenzo[7,8]pyrido[1′,2′:5,6][1,9, 5]dioxaazacyclooctadecino[3,2-e]indole-18-carboxylic acid] yielded an IC50 of 2870 nM.
In the case of COc1cc(C)c2[nH]ccc2c1CN1CC[C@H]2C[C@H]1c1ccc(C(=O)NS(=O)(=O)C(C)C)cc1OCCCCCCO2 [Ex. 47, (1^2S,1^4S)-N-(isopropylsulfonyl)-11-((5-methoxy-7-methyl-1H-indol-4-yl)methyl)-3,10-dioxa-1(2,4)-piperidina-2(1,2)-benzenacyclodecaphane-2^4-carboxamide], the IC50 is reported as 649 nM.
Molecule COc1cc(C)c2[nH]ccc2c1CN1CC[C@H]2C[C@H]1c1ccc(C(=O)O)cc1CCCCCCCCO2 [Ex. 41, (1^2R,1^4R)-1^1-((5-methoxy-7-methyl-1H-indol-4-yl)methyl)-11-oxa-1(2,4)-piperidina-2(1,2)-benzenacycloundecaphane-2^4-carboxylic acid] has an IC50 of 129 nM.
Molecule Cc1cc2c(c3cc[nH]c13)CN1CC[C@@H](C[C@H]1c1ccc(C(=O)O)cc1)OCCCCCCCCCO2 (racemic) [Ex. 34, rac-4-((3^2R,3^4R)-1^7-methyl-11H-4,14-dioxa-1(4,5)-indola-3(1,4)-piperidinacyclotetradecaphane-3^2-yl)benzoic acid] has an IC50 of over 10000 nM.

Same assay, conditions: inhibition of CVF-Bb activity (3 nM CVF-Bb, Human Complement C3 substrate 1 μM, C3a quantified), PBS pH 7.4; read-out: IC50
Molecule COc1cc(C)c2[nH]ccc2c1CN1CC[C@H]2C[C@H]1c1ccc(C(=O)NS(C)(=O)=O)c3ccc(cc13)OCCC/C=C/CO2 [Ex. 54, (1^2S,1^4S,E)-1^1-((5-methoxy-7-methyl-1H-indol-4-yl)methyl)-N-(methylsulfonyl)-3,10-dioxa-1(2,4)-piperidina-2(1,7)-naphthalenacyclodecaphan-7-ene-2^4-carboxamide] has an IC50 of 303 nM.

Same assay, conditions: read-out: IC50
Molecule COc1cc(C)c2[nH]ccc2c1CN1CC[C@H]2C[C@H]1c1ccc(C(=O)O)cc1OCCCC/C=C\CO2 [Ex. 10, (1^2S,1^4S,Z)-1^1-((5-methoxy-7-methyl-1H-indol-4-yl)methyl)-3,11-dioxa-1(2,4)-piperidina-2(1,2)-benzenacycloundecaphan-8-ene-2^4-carboxylic acid] has an IC50 of 384 nM.
In the case of COc1cc(C)c2[nH]ccc2c1CN1CC[C@H]2C[C@H]1c1ccc(C(=O)NS(=O)(=O)C3CC3)cc1OCCCCCCO2 [Ex. 50, (12S,14S)—N-(cyclopropylsulfonyl)-11-((5-methoxy-7-methyl-1H-indol-4-yl)methyl)-3,10-dioxa-1(2,4)-piperidina-2(1,2)-benzenacyclodecaphane-24-carboxamide], the IC50 is reported as over 10000 nM.
COc1cc(C)c2[nH]ccc2c1CN1CC[C@H]2C[C@H]1c1ccc(C(=O)NS(=O)(=O)C3(C)CC3)cc1OCCCCCO2 [Ex. 67, (1^2S,1^4S)-1^1-((5-methoxy-7-methyl-1H-indol-4-yl)methyl)-N-((1-methylcyclopropyl)sulfonyl)-3,9-dioxa-1(2,4)-piperidina-2(1,2)-benzenacyclononaphane-2^4-carboxamide] gave an IC50 of 330 nM.
COc1cc(C)c2[nH]ccc2c1CN1CCC2CC1c1ccc(C(=O)O)cc1OCCCCCCO2 (stereo not drawn) [Ex. 5, (1^2S,1^4S)-11-((5-methoxy-7-methyl-1H-indol-4-yl)methyl)-3,10-dioxa-1(2,4)-piperidina-2(1,2)-benzenacyclodecaphane-2^4-carboxylic acid] was tested, and the IC50 was 262 nM.
With “(1^2S,1^4S)-N-(ethylsulfonyl)-1^1-((5-methoxy-7- methyl-1H-indol-4-yl)methyl)-3,10-dioxa- 1(2,4)-piperidina-2(1,2)- benzenacyclodecaphane-2^4-carboxamide [Ex. 45]” the IC50 was 396 nM.
Work on COc1cc(C)c2[nH]ccc2c1CN1CC[C@H]2C[C@H]1c1ccc(-c3ccn[nH]3)cc1OCCCCCCO2 [Ex. 55, (1^2S,1^4S)-1^1-((5-methoxy-7-methyl-1H-indol-4-yl)methyl)-2^4-(1H-pyrazol-5-yl)-3,10-dioxa-1(2,4)-piperidina-2(1,2)-benzenacyclodecaphane] yielded an IC50 of 2890 nM.
Work on CNS(=O)(=O)c1ccc2c(c1)OCCCCCCO[C@H]1CCN(Cc3c(OC)cc(C)c4[nH]ccc34)[C@H]2C1 [Ex. 79, (1^2S,1^4S)-1^1-((5-methoxy-7-methyl-1H-indol-4-yl)methyl)-N-methyl-3,10-dioxa-1(2,4)-piperidina-2(1,2)-benzenacyclodecaphane-2^4-sulfonamide] yielded an IC50 of over 10000 nM.
Molecule COc1cc(C)c2[nH]ccc2c1CN1CC[C@H]2C[C@H]1c1ccc(C(=O)O)cc1/C=C/CCCCCCCO2 [Ex. 64, (1^2S,1^4S,E)-1^1-((5-methoxy-7-methyl-1H-indol-4-yl)methyl)-12-oxa-1(2,4)-piperidina-2(1,2)-benzenacyclododecaphan-3-ene-2^4-carboxylic acid] has an IC50 of 127 nM.
With COc1cc(C)c2[nH]ccc2c1CN1CC[C@H]2C[C@H]1c1ccc(C(=O)O)c3ccc(cc13)OCCCCCCO2 [Ex. 49, (1^2S,14S)-1^1-((5-methoxy-7-methyl-1H-indol-4-yl)methyl)-3,10-dioxa-1(2,4)-piperidina-2(1,7)-naphthalenacyclodecaphane-2^4-carboxylic acid] the IC50 was 208 nM.
With COc1cc(C)c2[nH]ccc2c1CN1CC[C@@H]2CCCCCCCOc3cc(C(=O)O)ccc3[C@@H]1C2 [Ex. 77, (1^2S,1^4S)-1^1-((5-methoxy-7-methyl-1H-indol-4-yl)methyl)-3-oxa-1(2,4)-piperidina-2(1,2)-benzenacyclodecaphane-2^4-carboxylic acid] the IC50 was 85.6 nM.
With COc1cc(C)c2[nH]ccc2c1CN1CC[C@H]2C[C@H]1c1ccc(C(=O)NO)cc1OCCCCCCO2 [Ex. 63, (1^2S,1^4S)—N-hydroxy-1^1-((5-methoxy-7-methyl-1H-indol-4-yl)methyl)-3,10-dioxa-1(2,4)-piperidina-2(1,2)-benzenacyclodecaphane-2^4-carboxamide] the IC50 was 2450 nM.
Work on COc1cc(C)c2[nH]ccc2c1CN1CC[C@H]2C[C@H]1c1ccc(C(=O)O)c3ccc(cc13)OC/C=C\CO2 [Ex. 75, (1^2S,1^4S,Z)-1′-((5-methoxy-7-methyl-1H-indol-4-yl)methyl)-3,8-dioxa-1(2,4)-piperidina-2(1,7)-naphthalenacyclooctaphan-5-ene-2^4-carboxylic acid] yielded an IC50 of 352 nM.
COc1cc(C)c2[nH]ccc2c1CN1CC[C@H]2C[C@H]1c1ccc(C(=O)NS(=O)(=O)c3ccccc3)cc1OCCCCCCO2 [Ex. 57, (1^2S,1^4S)-1^1-((5-methoxy-7-methyl-1H-indol-4-yl)methyl)-N-(phenylsulfonyl)-3,10-dioxa-1(2,4)-piperidina-2(1,2)-benzenacyclodecaphane-2^4-carboxamide] gave an IC50 of 153 nM.
“(1^2S,1^4S,E)-1^1-((5-methoxy-7-methyl-1H-indol-4-yl)methyl)-3,10-dioxa-1(2,4)-piperidina-2(1,7)-naphthalenacyclodecaphan-7-ene-2^4-carboxylic acid [Ex. 53]” showed an IC50 of over 10000 nM.
In the case of COc1cc(C)c2[nH]ccc2c1CN1CC[C@H]2C[C@H]1c1ccc(C(=O)NS(=O)(=O)C3CCCC3)cc1OCCCCCO2 [Ex. 61, (1^2S,1^4S)—N-(cyclopentylsulfonyl)-1^1-((5-methoxy-7-methyl-1H-indol-4-yl)methyl)-3,9-dioxa-1(2,4)-piperidina-2(1,2)-benzenacyclononaphane-2^4-carboxamide], the IC50 is reported as 331 nM.
